Patent US9481870B2, “Nucleic acid encoding a polypeptide having aminotransferase activity, vectors and host cells comprising the nucleic acid” (KANEKA CORPORATION, priority 2010, dated 2016)
Blank lines part the entries; values can stand above or below the molecule they belong to.

Tests used:
Assay type in all cases: biochemical, Pseudomonas sp. MV37
purified TPM [1] = assay: Specificity to amino group donor (dabsylated alanine quantification, Example 10); conditions: pyruvic acid 14 mM, pH 7.5, 30° C., 1 hour; for Relative activity (%): amino group donor 14 mM (28 mM racemic body), n-butylamine = 100%
Protocol: (§1) Specifically, first, a purified polypeptide is added to a substrate solution with the following composition so that the volume thereof is 400 μl. After 1 hour of reaction at 30° C., 20 μl of 3N hydrochloric acid is added to stop the reaction. Next, 80 μl of a 0.2 M aqueous sodium carbonate solution and 200 μl of an acetone solution of 3.3 mg/mL Dabsyl chloride are separately added to 20 μl of the thus obtained reaction solution, followed by 10 minutes of reaction at 70° C. Acetic acid (20 μl) is added to the reaction solution and then the solution is stirred. The reaction solution is analyzed by HPLC under the following conditions, and then the quantity of dabsylated alanine is determined. In addition, the concentration of a purified polypeptide to be used herein is adjusted so that the amount of alanine generated is 2.8 mM or less as determined by the determination method (hereinafter, referred to as activity assay B).
The purified TPM obtained in Example 7 was examined to determine its specificity to amino group donors. First, 20 μL of a purified TPM solution was added to 380 μL of a substrate solution with the composition given below. After 1 hour of reaction at 30° C., 20 μL, of 3 N hydrochloric acid was added to stop the reaction. Next, 80 μl of an aqueous 0.2 M sodium carbonate solution and 200 μl of an acetone solution of 3.3 mg/mL Dabsyl chloride were added to 20 μL, of the thus obtained reaction solution, followed by 10 minutes of reaction at 70° C. 20 μL of acetic acid was added to the reaction solution. The reaction solution was stirred and then analyzed by HPLC under the following conditions, and thus the quantity of dabsylated alanine was determined.
(§2) [High Performance Liquid Chromatography (HPLC) Analysis Conditions] • Column: Deverosil ODS-HG-3 (NOMURA CHEMICAL) • Eluent: acetonitrile/0.045 M acetate buffer (pH4.1)=35/65 (volume ratio) • Flow rate: 0.9 mL/minute • Detection: 254 nm

purified TPM [2] = assay: Specificity to amino group receptor (Example 12); conditions: (S)-1-phenethylamine 25 mM, pH 7.0, 30° C., 5 minutes
Protocol: A substrate solution was added to the purified TPM solution, so that the final concentrations of the components would be as follows. After 5 minutes of reaction at 30° C., 6N hydrochloric acid was added in an amount of 50 μL per mL of the reaction solution, so as to stop the reaction. The reaction solution was analyzed by HPLC under the following conditions.
[High Performance Liquid Chromatography (HPLC) Analysis Conditions] • Column: Wakosil-II 5C18 RS (Wako Pure Chemical Industries, Ltd.) • Eluent: 10 mM potassium phosphate buffer (pH5.3): acetonitrile=3:2 • Flow rate: 1 mL/minute • Detection: 241 nm

purified TPM [3] = assay: Specificity 2 to amino group donor: typical substrates of ω-amino acid transaminase (Example 11); conditions: pyruvic acid 14 mM; for activity of TPM for the amino group donor: amino compound 14 mM, pH 7.5; for Relative activity (%): amino group donor 14 mM, pH 7.5, 30° C., 1 hour, (S)-1-phenethylamine = 100
Protocol: as §1
The purified TPM obtained in Example 7 was examined to determine its reactivity to typical substrates of ω-amino acid transaminase. First, 20 μL of a purified TPM solution was added to 380 μL of a substrate solution with the composition given below. After 1 hour of reaction at 30° C., 20 μL of 3 N hydrochloric acid was added to stop the reaction. Next, 80 μL of a 0.2 M aqueous sodium carbonate solution and 200 μL of an acetone solution of 3.3 mg/mL Dabsyl chloride were separately added to 20 μL of the thus obtained reaction solution, followed by 10 minutes of reaction at 70° C. 20 μL of acetic acid was added to the solution and then it was stirred. The reaction solution was analyzed by HPLC under the following conditions, and thus the quantity of dabsylated alanine was determined.
as §2

SMILES: CCC(C)N (racemic) [±2-butylamine]
Relative activity (%) (purified TPM [1]): 67% | activity of TPM for the amino group donor (purified TPM [1]): exhibits its activity

SMILES: O=C1CCN(Cc2ccccc2)C1 [1-benzyl-3-pyrrolidinone]
Relative activity (%) (purified TPM [2]; substrate concentration 2.5 mM): 4.7%

Relative activity (%) (purified TPM [2]; substrate concentration 2.5 mM): 16%
SMILES: CC(=O)c1ccccn1 [2-acetylpyridine]

Relative activity (%) (purified TPM [2]; substrate concentration 2.5 mM): 4.6%
SMILES: CCCCCC(C)=O [2-heptanone]

SMILES: O=C(O)CCC(=O)C(=O)O [2-ketoglutaric acid]
Relative activity (%) (purified TPM [2]; substrate concentration 25 mM): 0%

Relative activity (%) (purified TPM [2]; substrate concentration 2.5 mM): 17%
SMILES: O=C1CCc2ccccc2C1 [2-tetralone]

activity of TPM for the amino group donor (purified TPM [3]): does not exhibit activity | Relative activity (%) (purified TPM [3]): 0%
SMILES: NCCCC(=O)O [4-aminobutyric acid]

SMILES: C[C@H](N)c1ccccc1 [(S)-α-phenethylamine]
Relative activity (%) (purified TPM [3]): 100%

Relative activity (%) (purified TPM [2]; substrate concentration 2.5 mM): 23%
SMILES: CC(=O)c1cnccn1 [Acetylpyrazine]

SMILES: CCOC(=O)CC(=O)c1ccccc1 [Benzoylacetic acid ethyl]
Relative activity (%) (purified TPM [2]; substrate concentration 2.5 mM): 13%

SMILES: O=C(Cc1ccccc1)c1ccccc1 [Benzyl phenyl ketone]
Relative activity (%) (purified TPM [2]; substrate concentration 2.5 mM): 3.8%

Relative activity (%) (purified TPM [2]; substrate concentration 2.5 mM): 12%
SMILES: CC(=O)CCc1ccccc1 [Benzylacetone]

SMILES: CCCC=O [Butylaldehyde]
Relative activity (%) (purified TPM [2]; substrate concentration 2.5 mM): 7%

SMILES: O=CC(=O)O [Glyoxalic acid]
Relative activity (%) (purified TPM [2]; substrate concentration 25 mM): 40%

SMILES: NCCCC[C@H](N)C(=O)O [L-lysine]
activity of TPM for the amino group donor (purified TPM [3]): does not exhibit activity | Relative activity (%) (purified TPM [3]): 0%

activity of TPM for the amino group donor (purified TPM [3]): does not exhibit activity | Relative activity (%) (purified TPM [3]): 0%
SMILES: NCCCCN [Putrescine]

Relative activity (%) (purified TPM [2]; substrate concentration 25 mM): 100%
SMILES: CC(=O)C(=O)O [Pyruvic acid]

activity of TPM for the amino group donor (purified TPM [3]): does not exhibit activity | Relative activity (%) (purified TPM [3]): 0%
SMILES: NCCS(=O)(=O)O [Taurine]

SMILES: NCc1ccccc1 [benzylamine]
Relative activity (%) (purified TPM [1]): 95% | activity of TPM for the amino group donor (purified TPM [1]): exhibits its activity

SMILES: CCCCN [n-butylamine]
Relative activity (%) (purified TPM [1]): 100% | activity of TPM for the amino group donor (purified TPM [1]): exhibits its activity

activity of TPM for the amino group donor (purified TPM [3]): does not exhibit activity | Relative activity (%) (purified TPM [3]): 0%
SMILES: NCCC(=O)O [β-alanine]
